{
  "source": "paper PMC8073907",
  "about": "“Peptide targeting of lysophosphatidylinositol-sensing GPR55 for osteoclastogenesis tuning” (Cell Communication and Signaling : CCS, 2021)",
  "key": {"RAW264.7 cells": {"test_system": "RAW264.7 cells", "assay": "RANKL-induced transcription of osteoclastogenesis markers in RAW264.7 cells (real-time PCR)", "format": "cell-based, murine", "method": "Total RNA was extracted using RNeasy isolation kits, cDNAs were obtained using QuantiTect Reverse Transcription kits, and real-time PCRs were performed with QuantiTect SYBR Green PCR kits (all from Qiagen, Hilden, Germany), according to the manufacturer instructions. The primers used for the real-time PCRs and their annealing temperatures are listed in the Additional file 1: Table S1. Human hypoxanthine phosphoribosyltransferase 1 (HPRT1) or murine β2-microglobulin were followed as housekeeping genes. The real-time PCR programme consisted of an initial 15 min at 95 °C, and then 45 cycles as follows: 94 °C for 15 s, annealing temperature of each primer for 30 s, and 72 °C for 30 s. The real-time PCR machine used was a LightCycler 480 Instrument II (Roche, Indianapolis, IN, USA).\nFor transient interference of Gpr55, RAW264.7 cells were plated at 6 × 10^5 cells/well in six-well plates in growth medium without antibiotics. Twenty-four hours later, the cells were transfected with 250 pmol/well non-targeting small-interfering (si)RNAs (si-NT; siGENOME siRNA Pool #2; D-001206-14; Dharmacon, Chicago, IL, USA) or Gpr55-specific siRNAs (si-GPR55; siGENOME mouse GPR55 SMART pool; M-043590-01; Dharmacon) using Lipofectamine LTX and Plus Reagent, according to the manufacturer instructions. Twenty-four hours later, the cells were plated for the different assays or for RNA extraction. The efficiency of interference was monitored by real-time PCR after 72 h of interference, using the primers listed in the Additional file 1: Table S1. β2-microglobulin was followed as a housekeeping gene.\nFor the osteoclastogenesis in-vitro assay, RAW264.7 cells were plated in differentiation medium (α-MEM with 10% heat-inactivated FBS, 2 mM L-glutamine, 100 U/mL penicillin, and 100 ug/mL streptomycin) at a density of 5 × 10^3 cells/well in 24-well plates on coverslips for morphological analysis, or at 2 × 10^4 cells/well in six-well plates for RNA extraction. Twenty-four hours later and every 48 h, the medium was replaced and the cells were treated with 15–30 ng/mL RANKL with DMSO and/or PBS as carriers, or with GPR55 antagonists/ agonists (0.5 µM ML-191, 30 µM O1918, 0.5 µM CBD, 0.5 μM CID16020046 1 µM soybean LPI, 1 μM ML-184), or with the peptides (150 nM peptide-P1; or the irrelevant peptide, Irr_P). Twenty-four hours after the last addition, the cells were fixed with 4% paraformaldehyde for morphological analyses or harvested for RNA extraction (see above)."}, "[1]": {"test_system": "HA-GPR55 in HEK293T cells", "assay": "LPI-induced ERK1/2 activation in GPR55-transfected HEK293T cells", "format": "cell-based, human", "settings": "10 µM LPI", "source_text": "The construct of haemagglutinin (HA)-tagged human GPR55 in pcDNA3 (HA-GPR55) was a gift from Prof. K. Mackie, Indiana University, Bloomington, IN, USA [39], while the construct ss-3 × HA-GPR55 in pcDNA3.1 (ssGPR55) with a triple HA tag at the N-terminus and an optimised signal sequence (ss, derived from amino acids 1–33 of the human growth hormone: […]) for efficient surface expression was from Prof. A. Irving, Dundee University, UK [40]. For both constructs, mutations were introduced by site-directed mutagenesis using QuickChange kits (Stratagene, La Jolla, CA, USA), according to the manufacturer instructions. The primers for the K80A mutation were 5′-[…]-3′ and 5′-[…]-3′ (Tm, 70.6 °C), and for Q87A were 5′-[…]-3′ and 5′-[…]-3′ (Tm, 73.1 °C).\nFor GPR55 overexpression, HEK293T cells were plated in their growth medium without antibiotics at 2.6 × 10^5 cells/well in 12-well plates, and 24 h later, the cells were transfected with 1 µg cDNA/well using Lipofectamine 2000, according to the manufacturer instructions. The pcDNA3 empty vector or that coding for human HA-GPR55 wild-type or its mutants HA-GPR55-K80A and HA-GPR55-Q87A were used.\nTwenty-four hours after transfection (HEK293T, HeLa cells or clones) or 72 h after interference (RAW264.7 cells), the cells were washed twice with HBSS^++, serum deprived (HEK293T cells for 4 h in DMEM; HeLa cells and clones for 2 h in MEM plus 2 mM glutamine and 25 mM HEPES; RAW264.7 cells for 2 h in DMEM), washed once again with HBSS^++, incubated in stimulation buffer (HBSS^++ with 10 mM HEPES, 0.4% faf-BSA for HEK293T cells; HBSS^++ with 25 mM HEPES and 0.01% faf-BSA for HeLa cells, clones, and RAW264.7 cells) in the absence or presence of stimuli, at 37 °C for the indicated times. […]\nProtein lysates were subjected to SDS-PAGE, and after electrophoresis, the proteins were transferred to a nitrocellulose membrane (PerkinElmer Life Science, Boston, MA, USA). […] The membranes were then washed twice with T-TBS and once with TBS for 5 min, and the signals were detected by ECL (Amersham Pharmacia, Piscataway, NJ, USA). […]"}},
  "data": [
    {"substance": "lysophosphatidylinositol [LPI]", "values": [
      {"measurement": "further stimulation of RANKL-induced Trap transcription", "setting": "RAW264.7 cells; 1 µM soybean LPI, 24 h", "value": "0.2 -fold"},
      {"measurement": "increase in RANKL-induced Cathepsin-k mRNA", "setting": "RAW264.7 cells; 1 µM soybean LPI, 24 h", "value": "1.4 -fold"},
      {"measurement": "further stimulation of RANKL-induced Ctr transcription", "setting": "RAW264.7 cells; 1 µM soybean LPI, 48 h", "value": "2.4 -fold"},
      {"measurement": "further stimulation of RANKL-induced Nfatc1 transcription", "setting": "RAW264.7 cells; 1 µM soybean LPI, 48 h", "value": "1.1 -fold"},
      {"measurement": "further stimulation of RANKL-induced Trap transcription", "setting": "RAW264.7 cells; 1 µM soybean LPI, 48 h", "value": "0.7 -fold"},
      {"measurement": "increase in RANKL-induced Cathepsin-k mRNA", "setting": "RAW264.7 cells; 1 µM soybean LPI, 48 h", "value": "1.2 -fold"},
      {"measurement": "further stimulation of RANKL-induced Ctr transcription", "setting": "RAW264.7 cells; 1 µM soybean LPI, 72 h", "value": "1.6 -fold"},
      {"measurement": "further stimulation of RANKL-induced Trap transcription", "setting": "RAW264.7 cells; 1 µM soybean LPI, 72 h", "value": "0.7 -fold"},
      {"measurement": "modulation of RANKL-induced Cathepsin-k transcription", "setting": "RAW264.7 cells; 1 µM soybean LPI, 72 h", "value": "no modulation"},
      {"measurement": "effect on Mmp-9 transcription", "setting": "RAW264.7 cells; 1 µM soybean LPI, any of the times analysed", "value": "no effects on Mmp-9 transcription"},
      {"measurement": "effect on osteoclastogenesis marker transcription after washout", "setting": "RAW264.7 cells; LPI washout after the initial 24 h, data not shown", "value": "did not produce any significant effects"},
      {"measurement": "RANKL-induced transcription of Ctr, si-NT versus si-GPR55 cells", "setting": "RAW264.7 cells; RANKL 15 ng/mL, 72 h, 1 µM soybean LPI or 1 µM ML-184", "value": "similarly increased RANKL-induced transcription of Ctr only in precursor cells treated with non-targeting siRNAs, and not in those silenced for GPR55"},
      {"measurement": "activation kinetics of ERK1/2", "setting": "[1]; HEK293T with HA-GPR55 wild-type, K80A or Q87A", "value": "comparable activation kinetics of ERK1/2 in all of the transfectants"},
      {"measurement": "ERK1/2 phosphorylation, GPR55-transfected and empty-vector-transfected cells", "setting": "[1]; HEK293T", "value": "increased phosphorylation of ERK1/2"}
    ]}
  ]
}
